According to PubChem BioAssay (NCI):
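Each compound was tested at five concentrations against cells in 96-well plates for 48 hours. TGI is the concentration that stops growth completely.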

Key:
Assay in all cases: DTP human tumour cell line panel, 48 h
SW-620 colon = test system: SW-620 colon
HT29 colon = test system: HT29 colon
NCI-H460 lung = test system: NCI-H460 lung
OVCAR-3 ovarian = test system: OVCAR-3 ovarian
UACC-257 melanoma = test system: UACC-257 melanoma
SF-539 CNS = test system: SF-539 CNS
HL-60(TB) leukemia = test system: HL-60(TB) leukemia
SF-295 CNS = test system: SF-295 CNS
LOX IMVI melanoma = test system: LOX IMVI melanoma
MOLT-4 leukemia = test system: MOLT-4 leukemia
NCI-H226 lung = test system: NCI-H226 lung
SN12C renal = test system: SN12C renal
MDA-MB-231 breast = test system: MDA-MB-231 breast
EKVX NSCLC = test system: EKVX NSCLC
A498 renal = test system: A498 renal
HOP-62 NSCLC = test system: HOP-62 NSCLC
T-47D breast = test system: T-47D breast
OVCAR-5 ovarian = test system: OVCAR-5 ovarian
K-562 leukemia = test system: K-562 leukemia
CCRF-CEM leukemia = test system: CCRF-CEM leukemia
MDA-N = test system: MDA-N
OVCAR-8 ovarian = test system: OVCAR-8 ovarian
NCI-H522 lung = test system: NCI-H522 lung
NCI-H23 lung = test system: NCI-H23 lung
SK-MEL-2 melanoma = test system: SK-MEL-2 melanoma
HCT-15 colon = test system: HCT-15 colon
786-0 renal = test system: 786-0 renal
PC-3 prostate = test system: PC-3 prostate
MDA-MB-435 = test system: MDA-MB-435
BT-549 breast = test system: BT-549 breast
UO-31 renal = test system: UO-31 renal
HCC-2998 colon = test system: HCC-2998 colon
NCI/ADR-RES ovarian = test system: NCI/ADR-RES ovarian
MALME-3M melanoma = test system: MALME-3M melanoma
ACHN renal = test system: ACHN renal
MCF7 breast = test system: MCF7 breast
SR leukemia = test system: SR leukemia
HCT-116 colon = test system: HCT-116 colon
HS 578T breast = test system: HS 578T breast
KM12 colon = test system: KM12 colon
A549 NSCLC = test system: A549 NSCLC
U251 CNS = test system: U251 CNS
SNB-19 CNS = test system: SNB-19 CNS
RPMI-8226 leukemia = test system: RPMI-8226 leukemia
COLO 205 colon = test system: COLO 205 colon
M14 melanoma = test system: M14 melanoma
SK-MEL-28 melanoma = test system: SK-MEL-28 melanoma
SK-MEL-5 melanoma = test system: SK-MEL-5 melanoma
HOP-92 NSCLC = test system: HOP-92 NSCLC
TK-10 renal = test system: TK-10 renal
IGROV1 ovarian = test system: IGROV1 ovarian
SF-268 CNS = test system: SF-268 CNS
SNB-75 CNS = test system: SNB-75 CNS
RXF 393 renal = test system: RXF 393 renal
OVCAR-4 ovarian = test system: OVCAR-4 ovarian
CAKI-1 renal = test system: CAKI-1 renal
SK-OV-3 ovarian = test system: SK-OV-3 ovarian
UACC-62 melanoma = test system: UACC-62 melanoma
DU-145 prostate = test system: DU-145 prostate

Nc1ncnc2c1ncn2[C@@H]1C[C@@H]1CO was tested, and the TGI (SW-620 colon) was greater than 100 µM, the TGI (HT29 colon) was greater than 100 µM and the TGI (NCI-H460 lung) was greater than 100 µM. It also gave a TGI (OVCAR-3 ovarian) greater than 100 µM, a TGI (UACC-257 melanoma) greater than 100 µM and a TGI (SF-539 CNS) greater than 100 µM. It also gave a TGI (HL-60(TB) leukemia) greater than 100 µM, a TGI (SF-295 CNS) greater than 100 µM and a TGI (LOX IMVI melanoma) greater than 100 µM. The TGI (MOLT-4 leukemia) was greater than 100 µM, the TGI (NCI-H226 lung) was greater than 100 µM and the TGI (SN12C renal) was greater than 100 µM. It also gave a TGI (MDA-MB-231 breast) greater than 100 µM, a TGI (EKVX NSCLC) greater than 100 µM and a TGI (A498 renal) greater than 100 µM. For the same compound, the TGI (HOP-62 NSCLC) was greater than 100 µM, the TGI (T-47D breast) was greater than 100 µM and the TGI (OVCAR-5 ovarian) was greater than 100 µM. The TGI (K-562 leukemia) was greater than 100 µM, the TGI (CCRF-CEM leukemia) was greater than 100 µM and the TGI (MDA-N) was greater than 100 µM. For the same compound, the TGI (OVCAR-8 ovarian) was greater than 100 µM, the TGI (NCI-H522 lung) was greater than 100 µM and the TGI (NCI-H23 lung) was greater than 100 µM. The TGI (SK-MEL-2 melanoma) was greater than 100 µM, the TGI (HCT-15 colon) was greater than 100 µM and the TGI (786-0 renal) was greater than 100 µM. For the same compound, the TGI (PC-3 prostate) was greater than 100 µM, the TGI (MDA-MB-435) was greater than 100 µM and the TGI (BT-549 breast) was greater than 100 µM. It also gave a TGI (UO-31 renal) greater than 100 µM, a TGI (HCC-2998 colon) greater than 100 µM and a TGI (NCI/ADR-RES ovarian) greater than 100 µM. For the same compound, the TGI (MALME-3M melanoma) was greater than 100 µM, the TGI (ACHN renal) was greater than 100 µM and the TGI (MCF7 breast) was greater than 100 µM. For the same compound, the TGI (SR leukemia) was greater than 100 µM, the TGI (HCT-116 colon) was greater than 100 µM and the TGI (HS 578T breast) was greater than 100 µM. For the same compound, the TGI (KM12 colon) was greater than 100 µM, the TGI (A549 NSCLC) was greater than 100 µM and the TGI (U251 CNS) was greater than 100 µM. It also gave a TGI (SNB-19 CNS) greater than 100 µM and a TGI (RPMI-8226 leukemia) greater than 100 µM.

With O=Cc1[nH]c(=O)[nH]c(=O)c1C(=O)O the TGI (SW-620 colon) was greater than 100 µM, the TGI (COLO 205 colon) was greater than 100 µM and the TGI (HT29 colon) was greater than 100 µM. For the same compound, the TGI (M14 melanoma) was greater than 100 µM, the TGI (NCI-H460 lung) was greater than 100 µM and the TGI (OVCAR-3 ovarian) was greater than 100 µM. For the same compound, the TGI (UACC-257 melanoma) was greater than 100 µM, the TGI (SF-539 CNS) was greater than 100 µM and the TGI (HL-60(TB) leukemia) was greater than 100 µM. It also gave a TGI (SF-295 CNS) greater than 100 µM, a TGI (SK-MEL-28 melanoma) greater than 100 µM and a TGI (LOX IMVI melanoma) greater than 100 µM. It also gave a TGI (SK-MEL-5 melanoma) greater than 100 µM, a TGI (HOP-92 NSCLC) greater than 100 µM and a TGI (MOLT-4 leukemia) greater than 100 µM. It also gave a TGI (TK-10 renal) greater than 100 µM, a TGI (IGROV1 ovarian) greater than 100 µM and a TGI (NCI-H226 lung) greater than 100 µM. The TGI (SF-268 CNS) was greater than 100 µM, the TGI (SN12C renal) was greater than 100 µM and the TGI (MDA-MB-231 breast) was greater than 100 µM. It also gave a TGI (EKVX NSCLC) greater than 100 µM, a TGI (HOP-62 NSCLC) greater than 100 µM and a TGI (T-47D breast) greater than 100 µM. It also gave a TGI (SNB-75 CNS) greater than 100 µM, a TGI (RXF 393 renal) greater than 100 µM and a TGI (OVCAR-4 ovarian) greater than 100 µM. The TGI (OVCAR-5 ovarian) was greater than 100 µM, the TGI (CAKI-1 renal) was greater than 100 µM and the TGI (K-562 leukemia) was greater than 100 µM. For the same compound, the TGI (CCRF-CEM leukemia) was greater than 100 µM, the TGI (MDA-N) was greater than 100 µM and the TGI (OVCAR-8 ovarian) was greater than 100 µM. The TGI (NCI-H522 lung) was greater than 100 µM, the TGI (NCI-H23 lung) was greater than 100 µM and the TGI (SK-MEL-2 melanoma) was greater than 100 µM. It also gave a TGI (HCT-15 colon) greater than 100 µM, a TGI (786-0 renal) greater than 100 µM and a TGI (SK-OV-3 ovarian) greater than 100 µM. For the same compound, the TGI (UACC-62 melanoma) was greater than 100 µM, the TGI (PC-3 prostate) was greater than 100 µM and the TGI (DU-145 prostate) was greater than 100 µM. It also gave a TGI (MDA-MB-435) greater than 100 µM, a TGI (UO-31 renal) greater than 100 µM and a TGI (HCC-2998 colon) greater than 100 µM. For the same compound, the TGI (NCI/ADR-RES ovarian) was greater than 100 µM, the TGI (MALME-3M melanoma) was greater than 100 µM and the TGI (ACHN renal) was greater than 100 µM. The TGI (MCF7 breast) was greater than 100 µM, the TGI (SR leukemia) was greater than 100 µM and the TGI (HCT-116 colon) was greater than 100 µM. It also gave a TGI (HS 578T breast) greater than 100 µM, a TGI (KM12 colon) greater than 100 µM and a TGI (A549 NSCLC) greater than 100 µM. For the same compound, the TGI (U251 CNS) was greater than 100 µM, the TGI (SNB-19 CNS) was greater than 100 µM and the TGI (RPMI-8226 leukemia) was greater than 100 µM.

In the case of Cn1c(=O)c(-c2ccccc2)c(N=[N+]=[N-])c2ccccc21, the TGI (SW-620 colon) is reported as greater than 100 µM, the TGI (COLO 205 colon) is reported as greater than 100 µM and the TGI (HT29 colon) is reported as 49.9 µM. It also gave a TGI (M14 melanoma) greater than 100 µM, a TGI (NCI-H460 lung) greater than 100 µM and a TGI (OVCAR-3 ovarian) greater than 100 µM. The TGI (UACC-257 melanoma) was greater than 100 µM, the TGI (SF-539 CNS) was greater than 100 µM and the TGI (SF-295 CNS) was greater than 100 µM. The TGI (SK-MEL-28 melanoma) was greater than 100 µM, the TGI (SK-MEL-5 melanoma) was greater than 100 µM and the TGI (HOP-92 NSCLC) was greater than 100 µM. It also gave a TGI (MOLT-4 leukemia) of 85.4 µM, a TGI (TK-10 renal) greater than 100 µM and a TGI (IGROV1 ovarian) greater than 100 µM. For the same compound, the TGI (NCI-H226 lung) was greater than 100 µM, the TGI (SF-268 CNS) was greater than 100 µM and the TGI (SN12C renal) was greater than 100 µM. For the same compound, the TGI (MDA-MB-231 breast) was greater than 100 µM, the TGI (A498 renal) was greater than 100 µM and the TGI (HOP-62 NSCLC) was greater than 100 µM. It also gave a TGI (T-47D breast) greater than 100 µM, a TGI (SNB-75 CNS) greater than 100 µM and a TGI (RXF 393 renal) greater than 100 µM. For the same compound, the TGI (OVCAR-4 ovarian) was greater than 100 µM, the TGI (OVCAR-5 ovarian) was greater than 100 µM and the TGI (CAKI-1 renal) was greater than 100 µM. The TGI (K-562 leukemia) was greater than 100 µM, the TGI (CCRF-CEM leukemia) was greater than 100 µM and the TGI (MDA-N) was greater than 100 µM. It also gave a TGI (OVCAR-8 ovarian) greater than 100 µM, a TGI (NCI-H522 lung) of 75.5 µM and a TGI (NCI-H23 lung) greater than 100 µM. It also gave a TGI (HCT-15 colon) greater than 100 µM, a TGI (SK-OV-3 ovarian) greater than 100 µM and a TGI (UACC-62 melanoma) greater than 100 µM. For the same compound, the TGI (PC-3 prostate) was greater than 100 µM, the TGI (DU-145 prostate) was greater than 100 µM and the TGI (MDA-MB-435) was greater than 100 µM. The TGI (BT-549 breast) was greater than 100 µM, the TGI (UO-31 renal) was greater than 100 µM and the TGI (HCC-2998 colon) was 47 µM. For the same compound, the TGI (NCI/ADR-RES ovarian) was greater than 100 µM, the TGI (MALME-3M melanoma) was 87.8 µM and the TGI (ACHN renal) was 96.3 µM. For the same compound, the TGI (MCF7 breast) was greater than 100 µM, the TGI (SR leukemia) was 75.4 µM and the TGI (HCT-116 colon) was greater than 100 µM. For the same compound, the TGI (HS 578T breast) was greater than 100 µM, the TGI (KM12 colon) was greater than 100 µM and the TGI (A549 NSCLC) was greater than 100 µM. The TGI (U251 CNS) was greater than 100 µM and the TGI (SNB-19 CNS) was greater than 100 µM.
